Laboratory results: patent US11033603B2, “Method for treating ocular diseases” (priority 2019, dated 2021)
“Also recorded” adds a separate entry of the source.

What was measured:
[1] = tested on: VEGF induced angiogenesis; assay: In vivo Matrigel plug angiogenesis assay; parameters: species or system B57l/6 mice; settings: mice; for VEGF induced angiogenesis in Matrigel plugs (images, FIG. 1): plugs taken out on Day 7; for Efficacy in inhibition of VEGF induced angiogenesis by hemoglobin level (FIG. 2), compared with Sorafenib: hemoglobin by Drabkin's reagent kit, Day 7
Description: In Vivo Matrigel Plug Angiogenesis Assay
Matrigel plug is made from a gelatinous protein mixture secreted by Engelbreth-Holm-Swarm (EHS) mouse sarcoma cells (produced and marketed by Corning Life Sciences and BD Biosciences). Matrigel resembles the complex extracellular environment found in many tissues and is used by cell biologists as a substrate (basement membrane matrix) for culturing assay.
The test animals were 5 to 8-week-aged B57l/6 mice. The Matrigel was mixed with PBS at a ratio of 4:1 to obtain the Matrigel plug. The mice were administered with the Matrigel plugs containing 30 IU heparin and VEGF 150 ng/ml (500 ul/mouse), and then divided into four groups (4 mice in one group), treated with Beauvericin i.p. or orally (GYT-088 Group), Sorafenib (Sorafenib Group) as a positive control, VEGF alone (Vehicle), and without any treatment (Ctrl). After one day, the animals were administered with the sorafenib i.p. at a dosage of 30 mg/kg or Beauvericin i.p. at a dosage of 2.4 mg/kg (0.1c.c./mice/day), or were orally administered with the Beauvericin at a dosage of 24 mg/kg once per day for six days. On Day 7, the animals were sacrificed and the Matrigel plugs were taken out for observation of angiogenesis. The hemoglobin of each mouse was also measured by Drabkin's reagent kit.

[2] = Drug observed in the eyes after oral administration (FIG. 3); assay type: in vivo
[3] = tested on: naturally-occurring diabetic macular edema in rhesus monkeys; assay: Fundus photography (FP) of NPDR related changes in spontaneous DME rhesus monkeys; assay type: in vivo, Macaca mulatta (Rhesus Macaque)
Description: (§1) Evaluation of Efficacy of beauvericin at different doses for 60 days on improving naturally-occurring diabetic macular edema in rhesus monkeys, providing a basis for clinical trial dose design and safety study.
(§2) Macaca mulatta (Rhesus Macaque) are used in the evaluation.
Secondary Endpoints and Safety Parameters: • (1) Fundus photography (FP). To detect changes of hemorrhage, exudate or vessel lesion before and after treatment; and • (2) Drug effect on metabolism and lipid profiles, liver and kidney function.
Non-human primates (NHPs) are extremely similar to humans in physiological function and structure of eyes. […]
Inclusion Criteria • (1) Female, age 13-18 years (equals to 40-60 years old in human adults), 6-7 kg; • (2) Diabetic duration: over 3 years; • (3) DME of single/both eyes; • (4) DME: the retinal thickness measured by Heidelberg Spectralis OCT in recent half year and diagnosed by FP/FFA with Kowa VX-20 Fundus Camera; • (5) CRT≥260 μm (Central Foveal Thickness) and/or Average Thickness of ETDRS regions≥319 μm. […] Nondiabetic monkey: Average thickness of the retina in nondiabetic animals was 192±11 μm at the fovea, and 307±15 and 328±13 measured at a distance of 1.5 mm from fovea on the temporal and nasal sides, respectively. […]

[4] = tested on: naturally-occurring diabetic macular edema in rhesus monkeys; assay: Retinal thickness by OCT in spontaneous DME rhesus monkeys; assay type: in vivo, Macaca mulatta (Rhesus Macaque); settings: for Macular Central Thickness, left eye / Macular Central Thickness, right eye / Fovea Thickness, left eye / Fovea Thickness, right eye: monkey #2003 (NPDR); for Macular Central Thickness, left eye: baseline 204; for Macular Central Thickness, right eye: baseline 210; for Fovea Thickness, left eye: baseline 257; for Fovea Thickness, right eye: baseline 260
Description: as §1, §2
Retinal Thickness by OCT. To Quantify Retinal Thickness Before and after Treatment.
Retinal thickness is evaluated by 2 methods using OCT: (1) at the fovea and 1.5 mm on either side of it (three point method), and (2) using a 52-point grid to determine the fraction of macula that had thicknesses in different thickness groupings (250-300, 301-350, 351-400 μm, etc.). This method was developed by the Primed team in collaboration with Prof. Dr. Timothy Kern, a renowned diabetic retinopathy expert from Case Western Reserve University. Refer to the ARVO 2018 Poster. Assessment of macular thickening in spontaneously diabetic rhesus monkeys.
Inclusion Criteria • (1) Female, age 13-18 years (equals to 40-60 years old in human adults), 6-7 kg; • (2) Diabetic duration: over 3 years; • (3) DME of single/both eyes; • (4) DME: the retinal thickness measured by Heidelberg Spectralis OCT in recent half year and diagnosed by FP/FFA with Kowa VX-20 Fundus Camera; • (5) CRT≥260 μm (Central Foveal Thickness) and/or Average Thickness of ETDRS regions≥319 μm. (Retinal Thickening is defined by Mean and SD of CRT and ETDRS thickness of normal monkeys). The retinal thickening is defined as thickness that exceeded the normal mean by 2 standard deviations. Nondiabetic monkey: Average thickness of the retina in nondiabetic animals was 192±11 μm at the fovea, and 307±15 and 328±13 measured at a distance of 1.5 mm from fovea on the temporal and nasal sides, respectively. This method was developed by the Primed team in collaboration with Prof. Dr. Timothy Kern, a renowned diabetic retinopathy expert from Case Western Reserve University. Refer to the ARVO 2018 Poster. Assessment of macular thickening in spontaneously diabetic rhesus monkeys; and • (6) with/without vessel leakage or non-perfusion area.
6 spontaneous DME rhesus monkeys (with medical record within one year) will be provided and 4 out of 6 monkeys will be enrolled in the Pre-study period (four weeks) for FA, FP, OCT and slit lamp examination as well as blood biochemistry before treatment. 4 Monkeys will be divided into two groups based on retinal thickness by OCT: • (1) Group 1, vehicle group, N=1; • (2) Group 2, test article group, N=3; (Route of administration: oral administration, once a day; Dosage: TBD).
Retinal thickness includes CST and ETDRS thickness. […]

[5] = monkey #2003, Day 14 versus baseline
[6] = monkey #2003, Day 56 versus baseline

In the case of `CC(C)[C@H]1OC(=O)[C@H](Cc2ccccc2)N(C)C(=O)[C@@H](C(C)C)OC(=O)[C@H](Cc2ccccc2)N(C)C(=O)[C@@H](C(C)C)OC(=O)[C@H](Cc2ccccc2)N(C)C1=O` [GYT-088, beauvericin], the “VEGF induced angiogenesis in Matrigel plugs (images, FIG. 1)” value ([1]; Beauvericin i.p. 2.4 mg/kg once per day for six days) is reported as “inhibited”, the “Efficacy in inhibition of VEGF induced angiogenesis by hemoglobin level (FIG. 2), compared with Sorafenib” value ([1]; listed as Beauvericin) is reported as “higher efficacy” and the “Efficacy in inhibition of VEGF induced angiogenesis by hemoglobin level (FIG. 2), compared with Sorafenib” value ([1]; listed as beauvericin) is reported as “higher efficacy; also recorded: even better than Sorafenib”. For the same compound, the “Crossing of blood-brain barrier (BBB) and blood-retinal barrier (BRB) into extravascular space of retina and vitreous body” value [2] was “can be cross the blood-brain barrier (BBB) and particularly the blood-retinal barrier (BRB)”, the “Presence of test drug in the eyes of the animal” value [2] was “observed in the eyes” and the “NPDR related changes, FP” value ([3]; monkey #2003, D28, oral, once a day, baseline: hemorrhages) was “improved”. For the same compound, the “NPDR changes before and after dosing by FP” value ([3]; other animals of GYT-088 group (not #2003), any time points) was “No significant changes”, the “Macular Central Thickness, left eye” value ([4]; D14) was 197 μm and the “Macular Central Thickness, right eye” value ([4]; D14) was 202 μm. For the same compound, the “Fovea Thickness, left eye” value ([4]; D14) was 249 μm, the “Fovea Thickness, right eye” value ([4]; D14) was 251 μm and the “Macular Central Thickness, left eye” value ([4]; D28) was 199 μm. For the same compound, the “Macular Central Thickness, right eye” value ([4]; D28) was 206 μm, the “Fovea Thickness, left eye” value ([4]; D28) was 253 μm and the “Fovea Thickness, right eye” value ([4]; D28) was 255 μm. The “Macular Central Thickness, left eye” value ([4]; D56 (Double dosing)) was 200 μm, the “Macular Central Thickness, right eye” value ([4]; D56 (Double dosing)) was 202 μm and the “Fovea Thickness, left eye” value ([4]; D56 (Double dosing)) was 254 μm. For the same compound, the “Fovea Thickness, right eye” value ([4]; D56 (Double dosing)) was 255 μm, the “Reduction of central macular thickness (CMT), left eye” value [4, 5] was 7 μm and the “Reduction of central macular thickness (CMT), right eye” value [4, 5] was 8 μm. The “Reduction of fovea thickness, left eye” value [4, 5] was 8 μm, the “Reduction of fovea thickness, right eye” value [4, 5] was 9 μm and the “Reduction of central macular thickness, left eye” value [4, 6] was 6 μm. For the same compound, the “Reduction of central macular thickness, right eye” value [4, 6] was 8 μm, the “Reduction of macular thickness, left eye” value [4, 6] was 3 μm and the “Reduction of macular thickness, right eye” value [4, 6] was 5 μm. For the same compound, the “Efficacy in Diabetic Macular Edema (conclusion)” value ([4]; rhesus monkeys, oral, once a day) was “provided an efficacy in Diabetic Macular Edema”.

In the case of `CNC(=O)c1cc(Oc2ccc(NC(=O)Nc3ccc(Cl)c(C(F)(F)F)c3)cc2)ccn1` [Sorafenib, reference compound], the “VEGF induced angiogenesis in Matrigel plugs (images, FIG. 1)” value ([1]; Sorafenib i.p. 30 mg/kg, positive control) is reported as “inhibited”.
